# Results as given in ChEMBL document CHEMBL1201862, “PubChem BioAssay data set” (2004).
#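 96-well plates; 48 h exposure; 5 concentrations. Endpoints by linear interpolation between flanking doses. Not reached: highest tested concentration assigned. The concentration for 50% growth inhibition is given as GI50.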 Active and inactive are the calls of the source. Rule as the data show it: active = GI50 up to about 1.1 µM and inactive = higher.
# How the values were obtained:
# Experiment in all cases: NCI-60 cell line screen, 48 h
# A549 = test system: A549
# SF-539 = test system: SF-539
# SF-295 = test system: SF-295
# HCC 2998 = test system: HCC 2998
# SW-620 = test system: SW-620
# UO-31 = test system: UO-31
# 786-0 = test system: 786-0
# MOLT-4 = test system: MOLT-4
# SNB-75 = test system: SNB-75
# CCRF-CEM = test system: CCRF-CEM
# A498 = test system: A498
# U-251 = test system: U-251
# HOP-92 = test system: HOP-92
# Malme-3M = test system: Malme-3M
# NCI-H460 = test system: NCI-H460
# LXFL 529 = test system: LXFL 529
# DU-145 = test system: DU-145
# MDA-N = test system: MDA-N
# PC-3 = test system: PC-3
# MDA-MB-435 = test system: MDA-MB-435
SMILES,GI50 (A549),GI50 (SF-539),GI50 (SF-295),GI50 (HCC 2998),GI50 (SW-620),GI50 (UO-31),GI50 (786-0),GI50 (MOLT-4),GI50 (SNB-75),GI50 (CCRF-CEM),GI50 (A498),GI50 (U-251),GI50 (HOP-92),GI50 (Malme-3M),GI50 (NCI-H460),GI50 (LXFL 529),GI50 (DU-145),GI50 (MDA-N),GI50 (PC-3),GI50 (MDA-MB-435)
CNC(=O)OCc1nc(SC(C)C)n(C)c1COC(=O)NC,> 100 µM (inactive),> 100 µM (inactive),> 100 µM (inactive),> 100 µM (inactive),> 100 µM (inactive),> 100 µM (inactive),> 100 µM (inactive),44.8 µM (inactive),> 100 µM (inactive),48.5 µM (inactive),> 100 µM (inactive),> 100 µM (inactive),> 100 µM (inactive),> 100 µM (inactive),72.8 µM (inactive),> 100 µM (inactive),,,,
CC1(O)CC2C(CC1SCCO)C2(C)C (configuration not stated),> 100 µM (inactive),> 100 µM (inactive),> 100 µM (inactive),> 100 µM (inactive),,> 100 µM (inactive),> 100 µM (inactive),> 100 µM (inactive),> 100 µM (inactive),> 100 µM (inactive),> 100 µM (inactive),> 100 µM (inactive),> 100 µM (inactive),> 100 µM (inactive),> 100 µM (inactive),> 100 µM (inactive),,,,
CC1NOC(=O)C1/N=N/c1ccccc1Br (configuration not stated),24.2 µM (inactive),22.3 µM (inactive),40.7 µM (inactive),41.2 µM (inactive),13.8 µM (inactive),18.6 µM (inactive),17.5 µM (inactive),29 µM (inactive),31.4 µM (inactive),25.8 µM (inactive),26.8 µM (inactive),22.4 µM (inactive),24 µM (inactive),26.2 µM (inactive),21.7 µM (inactive),15.7 µM (inactive),,,,
N/N=C1/C(=O)N(c2ccc(Cl)cc2)C(=O)C(=O)C1c1nc2ccccc2s1 (configuration not stated),> 100 µM (inactive),> 100 µM (inactive),> 100 µM (inactive),> 100 µM (inactive),> 100 µM (inactive),> 100 µM (inactive),> 100 µM (inactive),> 100 µM (inactive),> 65.6 µM (inactive),74.6 µM (inactive),> 100 µM (inactive),> 100 µM (inactive),> 100 µM (inactive),> 100 µM (inactive),> 100 µM (inactive),> 100 µM (inactive),,,,
CN/N=C(/CC(=O)c1sc(-n2nc(-c3ccccc3)cc2-c2ccccc2)nc1C)C(=O)Nc1ccc(Cl)c(Cl)c1,37.9 µM (inactive),40.2 µM (inactive),25.3 µM (inactive),44.3 µM (inactive),57.5 µM (inactive),21.2 µM (inactive),39.3 µM (inactive),16.7 µM (inactive),,27.7 µM (inactive),16.1 µM (inactive),24.6 µM (inactive),14.1 µM (inactive),78.3 µM (inactive),57.3 µM (inactive),26.3 µM (inactive),,,,
CC(=O)C1(O)Cc2c(O)c3c(c(O)c2C(OC2CC(N)C(O)C(C)O2)C1)C(=O)c1ccccc1C3=O (configuration not stated),0.0248 µM (active),0.0163 µM (active),0.0141 µM (active),0.0385 µM (active),0.0221 µM (active),0.042 µM (active),0.0152 µM (active),0.01 µM (active),0.0132 µM (active),0.01 µM (active),0.0115 µM (active),0.0255 µM (active),0.187 µM (active),0.01 µM (active),0.000569 µM (active),< 0.0219 µM (active),0.0221 µM (active),0.112 µM (active),0.247 µM (active),0.12 µM (active)
Cn1cc(C2(C)CC(C)(C)c3c2n(C)c2ccccc32)c2ccccc21 (configuration not stated),> 100 µM (inactive),> 100 µM (inactive),> 100 µM (inactive),52.4 µM (inactive),> 100 µM (inactive),92.7 µM (inactive),> 100 µM (inactive),42.4 µM (inactive),> 100 µM (inactive),92.7 µM (inactive),> 100 µM (inactive),> 100 µM (inactive),> 100 µM (inactive),> 100 µM (inactive),> 100 µM (inactive),> 100 µM (inactive),,,,
COc1ccccc1NC(=O)C1=C(C)NC(C)=C(C(=O)Nc2ccccc2OC)C1c1ccccc1F,57.4 µM (inactive),30.5 µM (inactive),> 100 µM (inactive),> 100 µM (inactive),> 100 µM (inactive),62.7 µM (inactive),> 100 µM (inactive),49.2 µM (inactive),18 µM (inactive),54.3 µM (inactive),> 100 µM (inactive),90.8 µM (inactive),79.3 µM (inactive),63.1 µM (inactive),67.9 µM (inactive),57.5 µM (inactive),,,,
O=C(CN1CCCCC1)N1CCc2c([nH]c3ccccc23)C1c1cccnc1 (configuration not stated),> 100 µM (inactive),> 100 µM (inactive),> 100 µM (inactive),> 100 µM (inactive),> 100 µM (inactive),48.8 µM (inactive),> 100 µM (inactive),> 100 µM (inactive),> 100 µM (inactive),> 100 µM (inactive),> 100 µM (inactive),> 100 µM (inactive),34.6 µM (inactive),,> 100 µM (inactive),> 100 µM (inactive),,,,
CC(=O)NNc1nc(C)c(C(=O)NNC(=O)C(=O)Nc2ccc(C)c(C)c2)s1,> 100 µM (inactive),> 100 µM (inactive),78.5 µM (inactive),> 100 µM (inactive),> 100 µM (inactive),74 µM (inactive),> 100 µM (inactive),39.6 µM (inactive),> 100 µM (inactive),42.2 µM (inactive),> 100 µM (inactive),96.4 µM (inactive),> 100 µM (inactive),> 100 µM (inactive),95.3 µM (inactive),58.2 µM (inactive),,,,
CC(=O)NC1C(OCc2ccccc2)OC(COC(=O)CCCCCCCCCCNC(=O)CCNc2ccc([N+](=O)[O-])c3[nH]c4ccc(O)cc4c(=O)c23)C(O)C1OC(C)C(=O)N[C@H](C(=O)N[C@H](CCC(=O)O)C(N)=O)C(C)C (some centres not stated),> 100 µM (inactive),40.1 µM (inactive),> 100 µM (inactive),23.8 µM (inactive),,55.2 µM (inactive),76 µM (inactive),43.2 µM (inactive),17.1 µM (inactive),33 µM (inactive),69.8 µM (inactive),44.4 µM (inactive),28.7 µM (inactive),22.9 µM (inactive),> 100 µM (inactive),81.8 µM (inactive),,,,
CC(C)=CC1CCc2ccccc2N1S(=O)(=O)c1ccc(C)cc1 (configuration not stated),1.22 µM (inactive),1.16 µM (inactive),1.5 µM (inactive),1.27 µM (inactive),0.726 µM (active),3.61 µM (inactive),2.35 µM (inactive),1.18 µM (inactive),1.17 µM (inactive),0.373 µM (active),1.61 µM (inactive),1.19 µM (inactive),0.433 µM (active),1.67 µM (inactive),1.36 µM (inactive),2.36 µM (inactive),,,,
O=C(Nc1ccccc1)O/N=C1/CCCC/C1=C\c1ccccc1,,17.7 µM (inactive),16.1 µM (inactive),20.6 µM (inactive),16.3 µM (inactive),13.2 µM (inactive),16.7 µM (inactive),5.53 µM (inactive),13.9 µM (inactive),10.7 µM (inactive),23.2 µM (inactive),16.2 µM (inactive),22.9 µM (inactive),,15.1 µM (inactive),8.49 µM (inactive),,,,
C=C1C(=O)OC2C1CC[C@H](C)C1(O)C(O)CC(=O)[C@@]21C (some centres not stated),31 µM (inactive),19 µM (inactive),24.8 µM (inactive),24 µM (inactive),20.6 µM (inactive),28.6 µM (inactive),24.2 µM (inactive),14.4 µM (inactive),24.7 µM (inactive),> 10 µM (inactive),10 µM (inactive),49.8 µM (inactive),27.7 µM (inactive),17.3 µM (inactive),36.5 µM (inactive),> 10 µM (inactive),,,,
COc1cc2c(c(OC)c1OC)-c1ccc(SC)c(=O)cc1[C@@H](NC(=O)c1ccc(F)cc1)CC2,,0.0283 µM (active),0.0327 µM (active),0.0284 µM (active),0.0306 µM (active),< 0.01 µM (active),0.0488 µM (active),0.0601 µM (active),0.07 µM (active),< 0.01 µM (active),0.0399 µM (active),0.0428 µM (active),0.0281 µM (active),0.0615 µM (active),0.0344 µM (active),0.0356 µM (active),,,,
